Results published in patent publication US20260232767A1, “INTERLEUKIN-23 RECEPTOR ANTAGONIST PEPTIDES FOR USE IN THE TREATMENT OF PSORIASIS” (Janssen Pharmaceutica NV, priority 2023, published 2026).

System: subjects with moderate-to-severe plaque psoriasis
Assay: Hematology and chemistry laboratory values by CTCAE grade
Assay type: in vivo, human
Details: through Week 56
Description: The proportion of participants who discontinued study intervention due to one or more AEs was low (n=4). All events were singular in nature with no apparent dose-dependent increase (Table 48 and Table 52). The number of participants with abnormal hematology and chemistry laboratory values with CTCAE toxicity grade≥3 were low through the end of the study (Table 43 through Table 46). There was no apparent dose-dependent increase in laboratory abnormality occurrences.

Structure (SMILES): CC(=O)NCCCC[C@@H]1NC(=O)[C@H](Cc2c[nH]c3c(C)cccc23)NC(=O)[C@H]([C@@H](C)O)NC(=O)[C@H](CC(N)=O)NC(=O)[C@@H](NC(C)=O)C(C)(C)SSC(C)(C)[C@@H](C(=O)N[C@@H](Cc2ccc(OCCN)cc2)C(=O)N[C@@H](Cc2ccc3ccccc3c2)C(=O)NC2(C(=O)N[C@@H](CCC(=O)O)C(=O)N[C@@H](CC(N)=O)C(=O)N[C@@H](Cc3cccnc3)C(=O)N(C)CC(N)=O)CCOCC2)NC1=O [IL-23 receptor antagonist peptide, Ac-[Pen]*-N-T-[W(7-Me)]-[Lys(Ac)]-[Pen]*-Phe[4-(2-aminoethoxy)]-[2-Nal]-[THP]-E-N-[3-Pal]-Sarc-NH2 (*[Pen]-[Pen]* formdisulfidebond)]
- Creatinine (increased): Subjects with Grade 3 (100 mg BID): 0
- Creatinine (increased): Subjects with Grade 4 (100 mg BID): 0
- Gamma Glutamyl Transferase (increased): Subjects with Grade 2 (100 mg BID): 0
- Gamma Glutamyl Transferase (increased): Subjects with Grade 3 (100 mg BID): 0
- Gamma Glutamyl Transferase (increased): Subjects with Grade 4 (100 mg BID): 0
- Glucose (decreased): Subjects with Grade 2 (100 mg BID): 0
- Glucose (decreased): Subjects with Grade 3 (100 mg BID): 0
- Glucose (decreased): Subjects with Grade 4 (100 mg BID): 0
- Hemoglobin (g/L) (decreased): subjects with Grade 2 (100 mg BID): 0
- Hemoglobin (g/L) (decreased): subjects with Grade 3 (100 mg BID): 0
- Hemoglobin (g/L) (decreased): subjects with Grade 4 (100 mg BID): 0
- Hemoglobin (g/L) (increased): subjects with Grade 2 (100 mg BID): 0
- Hemoglobin (g/L) (increased): subjects with Grade 3 (100 mg BID): 0
- Hemoglobin (g/L) (increased): subjects with Grade 4 (100 mg BID): 0
- Lymphocytes (×10^9/L) (decreased): subjects with Grade 2 (100 mg BID): 0
- Lymphocytes (×10^9/L) (decreased): subjects with Grade 3 (100 mg BID): 0
- Lymphocytes (×10^9/L) (decreased): subjects with Grade 4 (100 mg BID): 0
- Lymphocytes (×10^9/L) (increased): subjects with Grade 1 (100 mg BID): 0
- Lymphocytes (×10^9/L) (increased): subjects with Grade 2 (100 mg BID): 0
- Lymphocytes (×10^9/L) (increased): subjects with Grade 3 (100 mg BID): 0
- Lymphocytes (×10^9/L) (increased): subjects with Grade 4 (100 mg BID): 0
- Lymphocytes (×10^9/L) (increased): subjects with postbaseline maximum toxicity grade >0 (100 mg BID): 0
- Magnesium (decreased): Subjects with Grade 1 (100 mg BID): 0
- Magnesium (decreased): Subjects with Grade 2 (100 mg BID): 0
- Magnesium (decreased): Subjects with Grade 3 (100 mg BID): 0
- Magnesium (decreased): Subjects with Grade 4 (100 mg BID): 0
- Magnesium (decreased): Subjects with postbaseline maximum toxicity grade >0 (100 mg BID): 0
- Magnesium (increased): Subjects with Grade 2 (100 mg BID): 0
- Magnesium (increased): Subjects with Grade 3 (100 mg BID): 0
- Magnesium (increased): Subjects with Grade 4 (100 mg BID): 0
- Neutrophils (×10^9/L) (decreased): subjects with Grade 3 (100 mg BID): 0
- Neutrophils (×10^9/L) (decreased): subjects with Grade 4 (100 mg BID): 0
- Platelets (×10^9/L) (decreased): subjects with Grade 2 (100 mg BID): 0
- Platelets (×10^9/L) (decreased): subjects with Grade 3 (100 mg BID): 0
- Platelets (×10^9/L) (decreased): subjects with Grade 4 (100 mg BID): 0
- Potassium (decreased): Subjects with Grade 1 (100 mg BID): 0
- Potassium (decreased): Subjects with Grade 2 (100 mg BID): 0
- Potassium (decreased): Subjects with Grade 3 (100 mg BID): 0
- Potassium (decreased): Subjects with Grade 4 (100 mg BID): 0
- Potassium (decreased): Subjects with postbaseline maximum toxicity grade >0 (100 mg BID): 0
- Potassium (increased): Subjects with Grade 1 (100 mg BID): 5
- Potassium (increased): Subjects with Grade 2 (100 mg BID): 0
- Potassium (increased): Subjects with Grade 3 (100 mg BID): 0
- Potassium (increased): Subjects with Grade 4 (100 mg BID): 0
- Potassium (increased): Subjects with postbaseline maximum toxicity grade >0 (100 mg BID): 5
- Sodium (decreased): Subjects with Grade 1 (100 mg BID): 0
- Sodium (decreased): Subjects with Grade 2 (100 mg BID): 0
- Sodium (decreased): Subjects with Grade 3 (100 mg BID): 0
- Sodium (decreased): Subjects with Grade 4 (100 mg BID): 0
- Sodium (decreased): Subjects with postbaseline maximum toxicity grade >0 (100 mg BID): 0
- Sodium (increased): Subjects with Grade 2 (100 mg BID): 0
- Sodium (increased): Subjects with Grade 3 (100 mg BID): 0
- Sodium (increased): Subjects with Grade 4 (100 mg BID): 0
- Total Bilirubin (increased): Subjects with Grade 2 (100 mg BID): 0
- Total Bilirubin (increased): Subjects with Grade 3 (100 mg BID): 0
- Total Bilirubin (increased): Subjects with Grade 4 (100 mg BID): 0
- Triglycerides (increased): Subjects with Grade 4 (100 mg BID): 0
- WBC (×10^9/L) (decreased): subjects with Grade 2 (100 mg BID): 0
- WBC (×10^9/L) (decreased): subjects with Grade 3 (100 mg BID): 0
- WBC (×10^9/L) (decreased): subjects with Grade 4 (100 mg BID): 0
- WBC (×10^9/L) (increased): subjects with Grade 1 (100 mg BID): 0
- WBC (×10^9/L) (increased): subjects with Grade 2 (100 mg BID): 0
- WBC (×10^9/L) (increased): subjects with Grade 3 (100 mg BID): 0
- WBC (×10^9/L) (increased): subjects with Grade 4 (100 mg BID): 0
- WBC (×10^9/L) (increased): subjects with postbaseline maximum toxicity grade >0 (100 mg BID): 0
- Alanine Aminotransferase (increased): Subjects with Grade 1 (100 mg QD): 12
- Alanine Aminotransferase (increased): Subjects with Grade 3 (100 mg QD): 0
- Alanine Aminotransferase (increased): Subjects with Grade 4 (100 mg QD): 0
- Albumin (decreased): Subjects with Grade 1 (100 mg QD): 0
- Albumin (decreased): Subjects with Grade 2 (100 mg QD): 0
- Albumin (decreased): Subjects with Grade 3 (100 mg QD): 0
- Albumin (decreased): Subjects with Grade 4 (100 mg QD): 0
- Albumin (decreased): Subjects with postbaseline maximum toxicity grade >0 (100 mg QD): 0
- Alkaline Phosphatase (increased): Subjects with Grade 2 (100 mg QD): 0
- Alkaline Phosphatase (increased): Subjects with Grade 3 (100 mg QD): 0
- Alkaline Phosphatase (increased): Subjects with Grade 4 (100 mg QD): 0
- Aspartate Aminotransferase (increased): Subjects with Grade 1 (100 mg QD): 9
- Aspartate Aminotransferase (increased): Subjects with Grade 3 (100 mg QD): 0
- Aspartate Aminotransferase (increased): Subjects with Grade 4 (100 mg QD): 0
- Aspartate Aminotransferase (increased): Subjects with postbaseline maximum toxicity grade >0 (100 mg QD): 10
- Calcium corrected (decreased): Subjects with Grade 2 (100 mg QD): 0
- Calcium corrected (decreased): Subjects with Grade 3 (100 mg QD): 0
- Calcium corrected (decreased): Subjects with Grade 4 (100 mg QD): 0
- Calcium corrected (increased): Subjects with Grade 2 (100 mg QD): 0
- Calcium corrected (increased): Subjects with Grade 3 (100 mg QD): 0
- Calcium corrected (increased): Subjects with Grade 4 (100 mg QD): 0
- Cholesterol (increased): Subjects with Grade 1 (100 mg QD): 0
- Cholesterol (increased): Subjects with Grade 3 (100 mg QD): 0
- Cholesterol (increased): Subjects with Grade 4 (100 mg QD): 0
- Creatine Kinase (increased): Subjects with Grade 2 (100 mg QD): 0
- Creatine Kinase (increased): Subjects with Grade 3 (100 mg QD): 0
- Creatinine (increased): Subjects with Grade 2 (100 mg QD): 0
- Creatinine (increased): Subjects with Grade 3 (100 mg QD): 0
- Creatinine (increased): Subjects with Grade 4 (100 mg QD): 0
- Gamma Glutamyl Transferase (increased): Subjects with Grade 1 (100 mg QD): 5
- Gamma Glutamyl Transferase (increased): Subjects with Grade 2 (100 mg QD): 0
- Gamma Glutamyl Transferase (increased): Subjects with Grade 3 (100 mg QD): 0
- Gamma Glutamyl Transferase (increased): Subjects with Grade 4 (100 mg QD): 0
- Gamma Glutamyl Transferase (increased): Subjects with postbaseline maximum toxicity grade >0 (100 mg QD): 5
- Glucose (decreased): Subjects with Grade 3 (100 mg QD): 0
- Glucose (decreased): Subjects with Grade 4 (100 mg QD): 0
- Hemoglobin (g/L) (decreased): subjects with Grade 2 (100 mg QD): 0
- Hemoglobin (g/L) (decreased): subjects with Grade 3 (100 mg QD): 0
- Hemoglobin (g/L) (decreased): subjects with Grade 4 (100 mg QD): 0
- Hemoglobin (g/L) (increased): subjects with Grade 1 (100 mg QD): 0
- Hemoglobin (g/L) (increased): subjects with Grade 2 (100 mg QD): 0
- Hemoglobin (g/L) (increased): subjects with Grade 3 (100 mg QD): 0
- Hemoglobin (g/L) (increased): subjects with Grade 4 (100 mg QD): 0
- Hemoglobin (g/L) (increased): subjects with postbaseline maximum toxicity grade >0 (100 mg QD): 0
- Lymphocytes (×10^9/L) (decreased): subjects with Grade 3 (100 mg QD): 0
- Lymphocytes (×10^9/L) (decreased): subjects with Grade 4 (100 mg QD): 0
- Lymphocytes (×10^9/L) (increased): subjects with Grade 1 (100 mg QD): 0
- Lymphocytes (×10^9/L) (increased): subjects with Grade 3 (100 mg QD): 0
- Lymphocytes (×10^9/L) (increased): subjects with Grade 4 (100 mg QD): 0
- Magnesium (decreased): Subjects with Grade 2 (100 mg QD): 0
- Magnesium (decreased): Subjects with Grade 3 (100 mg QD): 0
- Magnesium (decreased): Subjects with Grade 4 (100 mg QD): 0
- Magnesium (increased): Subjects with Grade 2 (100 mg QD): 0
- Magnesium (increased): Subjects with Grade 3 (100 mg QD): 0
- Magnesium (increased): Subjects with Grade 4 (100 mg QD): 0
- Neutrophils (×10^9/L) (decreased): subjects with Grade 3 (100 mg QD): 0
- Neutrophils (×10^9/L) (decreased): subjects with Grade 4 (100 mg QD): 0
- Platelets (×10^9/L) (decreased): subjects with Grade 2 (100 mg QD): 0
- Platelets (×10^9/L) (decreased): subjects with Grade 3 (100 mg QD): 0
- Platelets (×10^9/L) (decreased): subjects with Grade 4 (100 mg QD): 0
- Potassium (decreased): Subjects with Grade 1 (100 mg QD): 0
- Potassium (decreased): Subjects with Grade 3 (100 mg QD): 0
- Potassium (decreased): Subjects with Grade 4 (100 mg QD): 0
- Potassium (increased): Subjects with Grade 1 (100 mg QD): 0
- Potassium (increased): Subjects with Grade 3 (100 mg QD): 0
- Potassium (increased): Subjects with Grade 4 (100 mg QD): 0
- Sodium (decreased): Subjects with Grade 1 (100 mg QD): 0
- Sodium (decreased): Subjects with Grade 2 (100 mg QD): 0
- Sodium (decreased): Subjects with Grade 3 (100 mg QD): 0
- Sodium (decreased): Subjects with Grade 4 (100 mg QD): 0
- Sodium (decreased): Subjects with postbaseline maximum toxicity grade >0 (100 mg QD): 0
- Sodium (increased): Subjects with Grade 2 (100 mg QD): 0
- Sodium (increased): Subjects with Grade 3 (100 mg QD): 0
- Sodium (increased): Subjects with Grade 4 (100 mg QD): 0
- Total Bilirubin (increased): Subjects with Grade 1 (100 mg QD): 7
- Total Bilirubin (increased): Subjects with Grade 2 (100 mg QD): 0
- Total Bilirubin (increased): Subjects with Grade 3 (100 mg QD): 0
- Total Bilirubin (increased): Subjects with Grade 4 (100 mg QD): 0
- Total Bilirubin (increased): Subjects with postbaseline maximum toxicity grade >0 (100 mg QD): 7
- Triglycerides (increased): Subjects with Grade 3 (100 mg QD): 0
- Triglycerides (increased): Subjects with Grade 4 (100 mg QD): 0
- Triglycerides (increased): Subjects with postbaseline maximum toxicity grade >0 (100 mg QD): 5
- WBC (×10^9/L) (decreased): subjects with Grade 3 (100 mg QD): 0
- WBC (×10^9/L) (decreased): subjects with Grade 4 (100 mg QD): 0
- WBC (×10^9/L) (decreased): subjects with postbaseline maximum toxicity grade >0 (100 mg QD): 5
- WBC (×10^9/L) (increased): subjects with Grade 1 (100 mg QD): 0
